In US6673938B1, “Substituted pyridine herbicides” (Syngenta Participations AG, priority 1998, dated 2004):
Several values for one entry are separate records, joined by “and”; a condition that tells them apart may be missing. Equal entries are not always repeated.

Legend:
[1] = tested on: Monocotyledonous and dicotyledonous test plants; test: Post-emergence herbicidal action; assay type: in vivo; conditions: evaluated after approximately 18 days; for Post-emergence action, Ipomoea / Post-emergence action, Lolium / Post-emergence action, Setaria / Post-emergence action, Sinapis / Post-emergence action, Solanum / Post-emergence action, Stellaria: 2000 g/ha, sprayed in 4- to 6-leaf stage, nine-step scale
Description: Monocotyledonous and dicotyledonous test plants are grown in the greenhouse in plastic pots containing standard soil, and, in the 4- to 6-leaf stage, sprayed with an aqueous suspension of the test substances of the formula I prepared with a 25% wettable powder (Example F3, b) in accordance with WO 97/34485) or with an emulsion of the test substances of the formula I prepared with a 25% emulsion concentrate (Example F1, c) in accordance with WO 97/34485), corresponding to a rate of 2 kg of a.i./ha or 250 g of a.i./ha (500 l of water/ha). The test plants are subsequently grown on in the greenhouse under optimal conditions. After a test period of approximately 18 days, the test is evaluated with reference to a nine-step scale (1=complete damage, 9=no effect). Score figures of 1 to 4 (in particular 1 to 3) mean a good to very good herbicidal action. In this test, the compounds of the formula I show a potent herbicidal action.

[2] = tested on: Monocotyledonous and dicotyledonous test plants; test: Herbicidal action before emergence of the plants (pre-emergence action); assay type: in vivo; conditions: evaluated after 3 weeks, nine-step scale; for pre-emergence action, Cyperus / pre-emergence action, Ipomoea / pre-emergence action, Setaria / pre-emergence action, Sinapis / pre-emergence action, Solanum / pre-emergence action, Stellaria: 2000 g/ha
Description: Monocotyledonous and dicotyledonous test plants are sown in standard soil in plastic pots. Immediately after sowing, the test substances as aqueous suspensions (prepared with a 25% wettable powder (Example F3, b) in accordance with WO 97/34485) or as emulsions (prepared with a 25% emulsion concentrate (Example F1, c)) are sprayed on at a rate of 2 kg of a.i./ha or 250 g of a.i./ha (500 l of water/ha). The test plants are then grown in the greenhouse under optimal conditions. After a test period of 3 weeks, the experiment is evaluated with reference to a nine-step scale (1=complete damage, 9=no effect). Score figures of 1 to 4 (in particular 1 to 3) mean a good to very good herbicidal action.

Row | Compound | Post-emergence action, Ipomoea [1] | Post-emergence action, Lolium [1] | Post-emergence action, Setaria [1] | Post-emergence action, Sinapis [1] | Post-emergence action, Solanum [1] | Post-emergence action, Stellaria [1] | pre-emergence action, Cyperus [2] | pre-emergence action, Ipomoea [2] | pre-emergence action, Setaria [2] | pre-emergence action, Sinapis [2] | pre-emergence action, Solanum [2] | pre-emergence action, Stellaria [2] | further results
1 | COCc1nc(C(F)(F)F)ccc1C(=O)C1=C(O)C(C)(C)OCC1=O [Compound A8-B552] | – | – | – | – | – | – | – | – | – | – | – | – | Post-emergence action: Abutilon (score, nine-step scale) ([1]; Abutilon, 250 g/ha, sprayed at 4- to 6-leaf stage): 2; Post-emergence action: Chenop. (score, nine-step scale) ([1]; Chenop., 250 g/ha, sprayed at 4- to 6-leaf stage): 2; Post-emergence action: Digitaria (score, nine-step scale) ([1]; Digitaria, 250 g/ha, sprayed at 4- to 6-leaf stage): 3; Post-emergence action: Echino. (score, nine-step scale) ([1]; Echino., 250 g/ha, sprayed at 4- to 6-leaf stage): 3; Post-emergence action: Ipopur. (score, nine-step scale) ([1]; Ipopur., 250 g/ha, sprayed at 4- to 6-leaf stage): 2; Post-emergence action: Panicum (score, nine-step scale) ([1]; Panicum, 250 g/ha, sprayed at 4- to 6-leaf stage): 2; Post-emergence action: Xanth. (score, nine-step scale) ([1]; Xanth., 250 g/ha, sprayed at 4- to 6-leaf stage): 2; Pre-emergence action, Abutilon ([2]; Abutilon, 250 g/ha): 1; Pre-emergence action, Amaranthus ([2]; Amaranthus, 250 g/ha): 4; Pre-emergence action, Chenop. ([2]; Chenop., 250 g/ha): 1; Pre-emergence action, Digitaria ([2]; Digitaria, 250 g/ha): 3; Pre-emergence action, Echino. ([2]; Echino., 250 g/ha): 4; Pre-emergence action, Panicum ([2]; Panicum, 250 g/ha): 2
2 | Cc1nc(C(F)(F)F)ccc1C(=O)C1=C(O)C(C)CCC1=O (stereo not drawn) [Compound A2-B2] | 1 | 2 | 2 | 1 | 2 | 2 | 1 | 1 | 1 | 1 | 1 | 2 | –
3 | Cc1nc(C(F)(F)F)ccc1C(=O)C1=C(O)C(C(C)C)CC(C)C1=O (stereo not drawn) [Compound A2-B49] | 2 | 2 | 2 | 1 | 2 | 2 | 2 | 4 | 2 | 2 | 1 | 2 | –
4 | COCCc1nc(C(F)(F)F)ccc1C(=O)C1=C(O)CCCC1=O [Compound A9-B1] | 2 | 4 | 2 | 2 | 2 | 2 | 2 | 1 | 2 | 1 | 1 | 2 | –
5 | COCc1nc(C(F)(F)F)ccc1C(=O)C1=C([S+]([O-])c2ccccc2)CCCC1=O (stereo not drawn) [Compound A8-B1103] | 1 | 4 | 1 | 1 | 1 | 1 | 1 | 3 | 2 | 1 | 1 | 2 | –
6 | COCc1nc(C(F)(F)F)ccc1C(=O)C1=C(O)C(C)(C)CCC1=O [Compound A8-B24] | 2 | 2 | 2 | 1 | 2 | 2 | 1 | 2 | 2 | 2 | 1 | 3 | –
7 | Cc1nc(C(F)(F)F)ccc1C(=O)C1=C(O)C(C)CC(C)C1=O (stereo not drawn) [A2-B46 (trans)] | 1 | 2 | 2 | 1 | 1 | 2 | 1 | 2 | 1 | 2 | 1 | 2 | –
8 | Cc1nc(C(F)(F)F)ccc1C(=O)C1=C(O)C(C)C(C)(C)CC1=O (stereo not drawn) [Compound A2-B1095] | 1 | 2 | 4 | 1 | 2 | 2 | 3 | 4 | 2 | 2 | 1 | 2 | –
9 | COCc1nc(C(F)(F)F)ccc1C(=O)C1=C(O)C(C)(C(=O)OC)CCC1=O (stereo not drawn) [Compound A8-B34] | 2 | 2 | 2 | 2 | 2 | 2 | 2 | 3 | 2 | 2 | 2 | 2 | –
10 | Cc1nc(C(F)(F)F)ccc1C(=O)C1=C(O)CC(C)(C)CC1=O [Compound A2-B1063] | 2 | 2 | 4 | 1 | 2 | 2 | 1 | 2 | 1 | 2 | 1 | 2 | –
11 | Cc1nc(C(F)(F)F)ccc1C(=O)C1=C(O)CC2CCCC2C1=O (stereo not drawn) [Compound A2-D36] | 2 | 2 and 1 | 2 and 1 | 1 | 2 and 1 | 2 and 1 | 1 | 2 | 2 and 1 | 2 | – | 1 | –
12 | C#CCC1CC(C)(C)C(=O)C(C(=O)c2ccc(C(F)(F)F)nc2C)=C1O (stereo not drawn) [Compound A2-B1082] | 1 | 2 | 2 | 1 | 1 | 2 | 2 | 2 | 2 | 2 | 1 | 2 | –
13 | Cc1nc(C(F)(F)F)ccc1C(=O)C1=C(O)C(C)CC2(CC2)C1=O (stereo not drawn) [Compound A2-C2] | 2 | 1 | 1 | 1 | 1 | 1 | 2 | 3 | 1 | 1 | 1 | 1 | –
14 | CSC1(C)CC(C)(C)C(=O)C(C(=O)c2ccc(C(F)(F)F)nc2C)=C1O (stereo not drawn) [Compound A2-B95] | 1 | 2 | 2 | 1 | 2 | 2 | 2 | 4 | 2 | 2 | 1 | 2 | –
